# Source: patent US20020164617A1, “Affinity selection-based screening of hydrophobic proteins” (NeoGenesis Pharmaceuticals, Inc., priority 2000, published 2002)
# pKd: −log10 of the molar value.
# What was measured:
# [1] = biological target: T1, m2 mAChR-G∀i1∃1(2-GDP complex (Sus scrofa, UniProt P06199)); assay: 3H-NMS binding assay by the method of Rinken and Haga
# T1 construct: made in house
# m2 mAChR = biological target: T2, m2 mAChR (Sus scrofa, UniProt P06199); assay: as above; conditions: m2 mAChR alone, without accessory protein; read-out: apparent Kd
# T2 construct: made in house
# T2 sequence (P06199 1-466): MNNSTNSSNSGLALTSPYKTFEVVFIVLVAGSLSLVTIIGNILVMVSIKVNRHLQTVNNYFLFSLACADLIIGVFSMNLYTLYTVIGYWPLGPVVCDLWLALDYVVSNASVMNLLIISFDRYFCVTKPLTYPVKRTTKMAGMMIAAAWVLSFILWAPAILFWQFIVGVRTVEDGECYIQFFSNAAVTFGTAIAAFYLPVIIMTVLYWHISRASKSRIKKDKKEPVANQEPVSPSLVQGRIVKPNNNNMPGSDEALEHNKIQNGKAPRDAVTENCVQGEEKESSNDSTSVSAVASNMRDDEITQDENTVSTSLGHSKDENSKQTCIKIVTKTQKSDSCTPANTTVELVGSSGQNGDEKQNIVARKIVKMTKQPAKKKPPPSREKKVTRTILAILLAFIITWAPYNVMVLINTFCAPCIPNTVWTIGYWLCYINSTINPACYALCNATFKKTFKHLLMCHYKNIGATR
# T1 sequence (P63096 whole entry partner, one chain of several): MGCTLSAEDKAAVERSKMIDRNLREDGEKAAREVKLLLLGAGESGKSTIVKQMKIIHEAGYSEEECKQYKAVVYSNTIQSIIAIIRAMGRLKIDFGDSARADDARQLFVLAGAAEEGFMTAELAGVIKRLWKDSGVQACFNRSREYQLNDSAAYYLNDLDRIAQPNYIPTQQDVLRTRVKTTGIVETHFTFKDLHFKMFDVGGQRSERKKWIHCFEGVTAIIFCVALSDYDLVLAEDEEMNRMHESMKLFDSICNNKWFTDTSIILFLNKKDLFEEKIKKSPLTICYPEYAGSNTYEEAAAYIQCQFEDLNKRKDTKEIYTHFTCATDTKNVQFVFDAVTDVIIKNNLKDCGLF
# T1 sequence (P62873 whole entry partner, one chain of several): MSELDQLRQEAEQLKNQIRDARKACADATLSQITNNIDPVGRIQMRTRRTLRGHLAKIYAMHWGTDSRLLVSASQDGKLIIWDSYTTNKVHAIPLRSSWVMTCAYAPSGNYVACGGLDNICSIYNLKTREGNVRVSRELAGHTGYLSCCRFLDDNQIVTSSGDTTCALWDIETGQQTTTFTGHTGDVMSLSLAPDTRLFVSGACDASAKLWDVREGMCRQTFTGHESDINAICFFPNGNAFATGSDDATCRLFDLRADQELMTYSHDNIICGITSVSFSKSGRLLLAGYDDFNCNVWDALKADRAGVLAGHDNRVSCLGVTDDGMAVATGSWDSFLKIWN
# T1 sequence (P59768 2-68 partner limits assumed, one chain of several): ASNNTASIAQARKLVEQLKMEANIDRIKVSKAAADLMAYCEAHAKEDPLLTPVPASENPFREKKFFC
compound,measurement,setting,value
"C[N+]1(C)[C@@H]2C[C@@H](OC(=O)[C@H](CO)c3ccccc3)C[C@H]1[C@@H]1O[C@@H]12 [3H-NMS, N-methylscapolamine]",pKd,[1]; m2 mAChR with G protein heterotrimer-GDP as accessory protein,6.36
same,enhancement of affinity of m2 mAChR in presence of accessory protein complex,[1]; with vs without G∀i1∃1(2-GDP complex),5 fold
same,pKd,m2 mAChR,9.77
